Columns and labels:
L929 mouse fibroblasts = assay: Cytotoxicity in normal cell line L929 (CCK-8 proliferation assay); type: cell-based; conditions: 48 h treatment, CCK-8, absorbance 450 nm, read-out: IC50 for proliferation of L929 cell lines
Experimental: Concentration of L929 mouse fibroblasts was adjusted to 4×10^5 cells/mL. The cells were seeded in a 96 well plate with […] per well. Wells not supplied with the cells (blank group) were provided. The cells were cultivated on the plate and were allowed to adhere overnight. Then, cell culture supernatants were collected, and 200 μL of test compound at various concentrations were added to the corresponding cell culture supernatants. Control and compound-treated cell culture supernatants were included in each experiment with triplicate wells for each experimental group, and were cultivated for a further 48 h. Then, the resulting cell culture supernatants were again collected, and fresh medium supplemented with 10% CCK-8 solution was added thereto. Incubation for an additional 3 h was carried out. Thereafter, the absorbance of the medium was measured at 450 nm wavelength, and the inhibitory rate of cell proliferation by test compound was calculated according to the equation below: R (%)=1−(Aexperiment−Ablank)/(Acontrol−Ablank)

THRβ = target: T1, THRβ (Homo sapiens, UniProt P10828); assay: THRβ agonist activity, fluorescence ratio 665 nm/615 nm with EE-RxRα and biotin-GRIP; type: biochemical; conditions: incubated overnight at 4° C.
T1 construct: GST
T1 sequence (P10828 1-461): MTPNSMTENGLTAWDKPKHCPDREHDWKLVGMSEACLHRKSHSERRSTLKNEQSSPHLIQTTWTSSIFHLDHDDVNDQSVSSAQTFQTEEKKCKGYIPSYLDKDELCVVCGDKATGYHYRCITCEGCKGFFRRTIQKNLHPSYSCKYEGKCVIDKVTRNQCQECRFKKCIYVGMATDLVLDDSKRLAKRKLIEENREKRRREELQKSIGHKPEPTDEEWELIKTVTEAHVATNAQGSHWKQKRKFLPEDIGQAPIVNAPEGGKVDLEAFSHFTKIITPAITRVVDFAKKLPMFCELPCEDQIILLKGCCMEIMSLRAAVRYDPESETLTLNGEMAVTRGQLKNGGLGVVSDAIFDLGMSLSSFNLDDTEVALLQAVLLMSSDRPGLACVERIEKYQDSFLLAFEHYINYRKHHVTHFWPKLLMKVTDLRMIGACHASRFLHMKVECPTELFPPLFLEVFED
T1 sequence (P19793 225-462 partner limits assumed): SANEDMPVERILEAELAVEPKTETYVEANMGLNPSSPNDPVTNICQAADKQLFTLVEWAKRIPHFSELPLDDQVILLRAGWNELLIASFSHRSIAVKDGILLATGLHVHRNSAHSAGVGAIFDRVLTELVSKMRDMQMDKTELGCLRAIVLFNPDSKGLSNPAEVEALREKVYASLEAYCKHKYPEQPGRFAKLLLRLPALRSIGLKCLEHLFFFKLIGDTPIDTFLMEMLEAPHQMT
T1 sequence (Q15596 679-703 partner limits assumed): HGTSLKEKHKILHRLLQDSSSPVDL
Experimental: (§1) Test compound was dissolved and serially diluted in dimethyl sulfoxide (DMSO) with a final compound concentration of 60 mM. […] Buffer 1 was employed again to prepare EE-RxRα at the same concentrations as those of THRα and THRβ, respectively. Buffer 1+5% DMSO was employed to prepare biotin-GRIP (THRα: […], THRβ: 100 nM). Buffer 2 (50 mM Tris, pH 7.4, 100 mM NaCl, and 0.2 mg/mL BSA) was employed to prepare a mixed solution of 2×Eu-anti-GST and 2×streptavidin-d2. 5 μL of the THRα (THRβ) solution+5 μL of EE-RxRα+2.5 μL of the DMSO solution of test compound+2.5 μL of biotin-GRIP+5 μL of the mixed solution of 2×Eu-anti-GST and 2×streptavidin-d2 was employed as the reaction system, and incubated overnight at 4° C.

THRα = target: T2, THRα (Homo sapiens, UniProt P10827); assay: THRα agonist activity, fluorescence ratio 665 nm/615 nm with EE-RxRα and biotin-GRIP; type: biochemical; conditions: incubated overnight at 4° C.
T2 construct: GST
T2 sequence (P10827 1-410 isoform P10827-2): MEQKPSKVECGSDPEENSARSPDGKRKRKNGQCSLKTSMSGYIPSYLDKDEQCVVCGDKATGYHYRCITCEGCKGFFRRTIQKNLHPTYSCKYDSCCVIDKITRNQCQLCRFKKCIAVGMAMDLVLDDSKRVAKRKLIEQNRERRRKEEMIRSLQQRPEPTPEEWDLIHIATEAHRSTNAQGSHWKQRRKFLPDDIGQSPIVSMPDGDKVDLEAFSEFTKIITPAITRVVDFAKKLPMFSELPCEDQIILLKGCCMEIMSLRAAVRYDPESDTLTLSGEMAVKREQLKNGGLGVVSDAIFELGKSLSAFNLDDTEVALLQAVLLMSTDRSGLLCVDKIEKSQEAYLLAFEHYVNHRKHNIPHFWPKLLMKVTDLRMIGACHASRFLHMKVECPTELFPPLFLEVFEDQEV
T2 sequence (P19793 225-462 partner limits assumed): T1 sequence (P19793 225-462 partner limits assumed)
T2 sequence (Q15596 679-703 partner limits assumed): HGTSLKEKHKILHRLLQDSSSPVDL
Experimental: as §1

Row | SMILES | EC50 (THRβ) [µM] | EC50 (THRα) [µM] | IC50 (L929 mouse fibroblasts) [µM]
1 | N#Cc1nn(-c2ccc(Oc3cc(CC4CCCC4)c(=O)[nH]n3)cc2Cl)c(=O)[nH]c1=O [Compound 10] | 1.52 |  | > 50
2 | N#Cc1nn(-c2cc(Cl)c(Oc3n[nH]c(=O)cc3C3CCCC3)c(Cl)c2)c(=O)[nH]c1=O [Compound 38] | 0.783 | 4.66 | > 50
3 | CC(C)(C)Cc1cc(Oc2c(Cl)cc(-n3cc(C#N)c(=O)[nH]c3=O)cc2Cl)n[nH]c1=O [Compound 43] | 0.0403 | 6.62 | > 50
4 | N#Cc1nn(-c2ccc(Oc3n[nH]c(=O)cc3C3CCCC3)c(Cl)c2)c(=O)[nH]c1=O [Compound 39] | 0.583 | 3.22 | > 50
5 | CC(C)c1cc(Oc2c(Br)cc(-n3nc(C#N)c(=O)[nH]c3=O)cc2Br)n[nH]c1=O [Compound 28] | 0.102 | 0.0381 | > 50
6 | Cc1c(Oc2c(Cl)cc(-n3nc(C#N)c(=O)[nH]c3=O)cc2Cl)n[nH]c(=O)c1C [Compound 22] | 0.184 | 0.631 | > 50
7 | COc1cc(-n2nc(C#N)c(=O)[nH]c2=O)ccc1Oc1n[nH]c(=O)c(C)c1C [Compound 46] | 1.4 | 50.8 | > 50
8 | CC(C)(C)Cc1cc(Oc2cc(Cl)c(-n3nc(C#N)c(=O)[nH]c3=O)cc2Cl)n[nH]c1=O [Compound 20] | 4.58 |  | > 50
9 | CC(C)c1cc(Oc2ccc(-n3nc(C#N)c(=O)[nH]c3=O)cc2Cl)n[nH]c1=O [Compound 26] | 0.055 | 2.07 | > 50
10 | CC(C)c1cc(=O)[nH]nc1Oc1cc(Cl)c(-n2nc(C#N)c(=O)[nH]c2=O)cc1Cl [Compound 35] | > 60 | > 60 | > 50
11 | CC(C)(C)c1cc(Oc2ccc(-n3nc(C#N)c(=O)[nH]c3=O)c(Cl)c2)n[nH]c1=O [Compound 4] | 1.57 | > 60 | > 50
12 | CC(C)Cc1cc(Oc2ccc(-n3nc(C#N)c(=O)[nH]c3=O)cc2Br)n[nH]c1=O [Compound 15] | 1.52 |  | > 50
13 | N#Cc1nn(-c2ccc(Oc3cc(CC4CCCC4)c(=O)[nH]n3)c(Br)c2)c(=O)[nH]c1=O [Compound 9] | 0.642 | 4.76 | > 50
14 | CC(C)(C)c1cc(Oc2ccc(-n3nc(C#N)c(=O)[nH]c3=O)cc2F)n[nH]c1=O [Compound 2, 2-(4-((5-(tert-butyl)-6-oxo-1,6-dihydropyridazin-3-yl)oxy)-3-fluorophenyl)-3,5-dioxo-2,3,4,5-tetrahydro-1,2,4-triazine-6-carbonitrile] | 0.021 | 5.38 | > 50
15 | CC(C)(C)Cc1cc(Oc2ccc(-n3cc(C#N)c(=O)[nH]c3=O)c(Cl)c2)n[nH]c1=O [Compound 45] | > 60 |  | > 50
16 | COc1cc(-n2nc(C#N)c(=O)[nH]c2=O)ccc1Oc1cc(C(C)C)c(=O)[nH]n1 [Compound 31] | 0.0625 | 5.11 | > 50
17 | N#Cc1nn(-c2ccc(Oc3cc(C4CCCC4)c(=O)[nH]n3)c(F)c2)c(=O)[nH]c1=O [Compound 32] | 0.279 | 18.5 | > 50
18 | Cc1c(Oc2ccc(-n3nc(C#N)c(=O)[nH]c3=O)cc2F)n[nH]c(=O)c1C [Compound 23] | 0.776 | 4.59 | > 50
19 | CC(C)c1cc(Oc2cc(Cl)c(-n3nc(C#N)c(=O)[nH]c3=O)cc2Cl)n[nH]c1=O [Compound 29] | 0.117 |  | > 50

Now from value to compound, other results behind:

Row | EC50 (THRβ) [µM] | EC50 (THRα) [µM] | SMILES | IC50 (L929 mouse fibroblasts) [µM]
20 | 2.7 | 0.014 | CC(C)c1cc(Oc2ccc(-n3nc(C#N)c(=O)[nH]c3=O)cc2F)n[nH]c1=O [Compound 25] | > 50
21 | 0.042 | 2.32 | CC(C)(C)Cc1cc(Oc2cc(Cl)c(-n3cc(C#N)c(=O)[nH]c3=O)cc2Cl)n[nH]c1=O [Compound 44] | > 50
22 | 1.9 | > 60 | N#Cc1nn(-c2ccc(Oc3cc(CC4CCCC4)c(=O)[nH]n3)cc2)c(=O)[nH]c1=O [Compound 13] | > 50
23 | 0.0254 | 3.39 | CC(C)Cc1cc(Oc2c(Cl)cc(-n3nc(C#N)c(=O)[nH]c3=O)cc2Cl)n[nH]c1=O [Compound 14] | > 50
24 | 0.465 | 2.59 | CC(C)(C)c1cc(Oc2c(Cl)cc(-c3nn[nH]n3)cc2Cl)n[nH]c1=O [Compound 50] | > 50
25 | > 60 | 0.001 | CC(C)c1cc(Oc2ccc(-n3cc(C#N)c(=O)[nH]c3=O)c(Cl)c2)n[nH]c1=O [Compound 41] | > 50
26 | 0.745 | 3.66 | CC(C)(C)c1cc(Oc2c(Cl)cc(-c3c[nH]c(=O)c(O)c3)cc2Cl)n[nH]c1=O [Compound 48] | > 50
27 | 0.101 | 0.126 | CC(C)(C)c1cc(Oc2c(Cl)cc(-n3nc(C#N)c(=O)[nH]c3=O)cc2Cl)n[nH]c1=O [Compound 1, 2-(4-((5-(tert-butyl)-6-oxo-1,6-dihydropyridazin-3-yl)oxy)-3,5-dichlorophenyl)-3,5-dioxo-2,3,4,5-tetrahydro-1,2,4-triazine-6-carbonitrile] | > 50
28 | 0.0668 | 11.8 | CC(C)(C)Cc1cc(Oc2ccc(-n3nc(C#N)c(=O)[nH]c3=O)cc2Cl)n[nH]c1=O [Compound 19] | > 50
29 | 4.16 | 13.8 | CC(C)c1cc(=O)[nH]nc1Oc1ccc(-n2nc(C#N)c(=O)[nH]c2=O)c(Cl)c1 [Compound 36] | > 50
30 | 1.65 | 17.6 | CC(C)c1cc(Oc2c(Cl)cc(-c3c[nH]c(=O)c(O)c3)cc2Cl)n[nH]c1=O [Compound 47, 6-(2,6-dichloro-4-(5-hydroxy-6-oxo-1,6-dihydropyridin-3-yl)phenoxy)-4-isopropylpyridazin-3(2H)-one] | > 50
31 | 0.0326 | 6.15 | N#Cc1nn(-c2ccc(Oc3cc(CC4CCCC4)c(=O)[nH]n3)c(Cl)c2)c(=O)[nH]c1=O [Compound 8] | > 50
32 | 3.85 | 0.014 | N#Cc1nn(-c2cc(Cl)c(Oc3cc(C4CCCC4)c(=O)[nH]n3)cc2Cl)c(=O)[nH]c1=O [Compound 34] | > 50
33 | > 63 | 24.1 | CC(C)c1cc(Oc2cc(Cl)c(-n3cc(C#N)c(=O)[nH]c3=O)cc2Cl)n[nH]c1=O [Compound 40] | > 50
34 | 0.0311 | 2.55 | CC(C)c1cc(Oc2ccc(-n3nc(C#N)c(=O)[nH]c3=O)cc2Br)n[nH]c1=O [Compound 27] | > 50
35 | 3.22 | 0.001 | N#Cc1nn(-c2ccc(Oc3n[nH]c(=O)cc3C3CC3)c(Cl)c2)c(=O)[nH]c1=O [Compound 37] | > 50
36 | 7.55 |  | N#Cc1nn(-c2ccc(Oc3cc(C4CCCC4)c(=O)[nH]n3)cc2Cl)c(=O)[nH]c1=O [Compound 33] | > 50

— patent publication US11964962B2, “Substituted pyridazinone compound and use thereof” (SHANDONG FIRST MEDICAL UNIVERSITY & SHANDONG ACADEMY OF …, priority 2020, dated 2024)
